Reference: patent US20260092054A1, “FUSED RING COMPOUND AND PHARMACEUTICAL CONTAINING SAME” (KAKEN PHARMACEUTICAL CO., LTD., priority 2022, published 2026)
pIC50: −log10 of the molar value.

Columns and labels:
human STAT6/pIL-4Rα = molecular target: T1, human STAT6/pIL-4Rα (Homo sapiens, UniProt P42226); assay: Binding inhibitory activity between human STAT6/pIL-4Rα by fluorescence polarization method; settings: rhSTAT6 (123-658) / FAM-pIL-4Rα peptide
T1 construct: histidine tag
T1 sequence (P42226 123-658): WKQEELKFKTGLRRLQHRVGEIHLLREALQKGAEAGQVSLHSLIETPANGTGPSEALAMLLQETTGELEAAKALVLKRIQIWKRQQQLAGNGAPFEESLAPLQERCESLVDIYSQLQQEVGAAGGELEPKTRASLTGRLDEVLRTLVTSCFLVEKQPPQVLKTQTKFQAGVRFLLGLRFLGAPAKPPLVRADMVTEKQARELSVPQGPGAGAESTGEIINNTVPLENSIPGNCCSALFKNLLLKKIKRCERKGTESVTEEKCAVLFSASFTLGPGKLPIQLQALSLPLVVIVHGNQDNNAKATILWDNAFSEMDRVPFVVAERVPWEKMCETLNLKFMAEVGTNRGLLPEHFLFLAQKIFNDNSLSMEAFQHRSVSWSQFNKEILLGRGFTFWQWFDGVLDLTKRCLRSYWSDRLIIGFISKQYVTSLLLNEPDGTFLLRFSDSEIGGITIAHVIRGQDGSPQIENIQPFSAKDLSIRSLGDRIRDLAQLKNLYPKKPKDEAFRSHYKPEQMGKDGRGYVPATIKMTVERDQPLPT
Outline: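 His-tagged human STAT6 (residues 123–658, E. coli-expressed) was preincubated with compound for 30 min at RT in the dark, in buffer e.g. 50 mM NaCl, 10 mM HEPES pH 7.0, 1 mM DTT, 1 mM EDTA, 0.01% NP-40. FAM-pIL-4Rα peptide was then added for 30 min. Fluorescence polarisation was read at 485/535 nm, with IC50 interpolated linearly between two points flanking 50%.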

human STAT6 = assay: Human STAT6 dependent reporter activity (IL-4 stimulated STAT6 reporter assay using STAT6-HEK293 cells); type: cell-based; settings: IL-4 stimulation, luciferase activity; for inhibition at 0.1 µM / inhibition at 1 µM: Homo sapiens, read-out: Inhibition rate (%)

Structure (SMILES) | pIC50 (human STAT6/pIL-4Rα) | inhibition at 0.1 µM (human STAT6; compound 0.1 μmol/L) [%] | inhibition at 1 µM (human STAT6; compound 1 μmol/L) [%] | Inhibition rate (%) (human STAT6; compound 0.1 μmol/L) | Inhibition rate (%) (human STAT6; compound 1 μmol/L)
CCn1c(-c2ccc(-n3cnn(C)c3=O)cc2)cc2ccnc(C(=O)Nc3ccc(F)c(C(N)=O)c3)c21 [Ex. 25] | 6.55 | 64 | 97 |  | 
COCCn1c(-c2ccc(-n3c(C)nn(C)c3=O)cc2)cc2ccnc(C(=O)Nc3cccc(C(N)=O)c3F)c21 [Ex. 26] | 6.41 | 63 | 98 |  | 
COCCn1c(-c2ccc(-n3c(C)nn(C)c3=O)cc2)cc2ccnc(C(=O)Nc3ccc(F)c(C(N)=O)c3)c21 [Ex. 27] | 6.46 | 52 | 96 |  | 
CCn1c(-c2ccc(-n3c(C)nn(C)c3=O)cc2)cc2c(C(F)(F)F)ccc(C(=O)Nc3ccc(F)c(C(N)=O)c3)c21 [Ex. 30] | 6.57 | 76 | 100 |  | 
CCn1c(-c2ccc(N3CCOCC3=O)cc2)cc2cc(C(F)(F)F)cc(C(=O)Nc3ccc(F)c(C(N)=O)c3)c21 [Ex. 31] | 6.34 | 80 | 97 |  | 
CCn1c(-c2ccc(-n3c(C)nn(C)c3=O)cc2)cc2cc(C)cc(C(=O)Nc3ccc(F)c(C(N)=O)c3)c21 [Ex. 32] | 6.38 | 91 | 100 |  | 
COCCn1c(-c2ccc(-n3c(C)nn(C)c3=O)cc2)cc2cc(C(F)(F)F)cc(C(=O)Nc3cccc(C(N)=O)c3F)c21 [Ex. 33] | 7.00 | 75 | 100 |  | 
Cc1nn(C)c(=O)n1-c1ccc(-c2cc3cccc(C(=O)Nc4ccc(F)c(C(N)=O)c4)c3n2CC2CC2)cc1 [Ex. 34] | 6.21 | 39 | 96 |  | 
CCn1c(-c2ccc(-n3cnn(C)c3=O)cc2)cc2cc(C(F)(F)F)cc(C(=O)Nc3cccc(C(N)=O)c3)c21 [Ex. 35] | 6.46 | 100 |  |  | 
CCn1c(-c2ccc(-n3c(C)nn(C)c3=O)cc2)cc2cc(C(F)(F)F)cc(C(=O)Nc3cccc(C(N)=O)c3)c21 [Ex. 37] | 6.60 | 96 | 100 |  | 
CCn1c(-c2ccc(-n3cnn(C)c3=O)cc2)cc2cc(C(F)(F)F)cc(C(=O)Nc3ccc(F)c(C(N)=O)c3)c21 [Ex. 38] | 6.48 |  | 100 | 99 | 
CCn1c(-c2ccc(-n3c(C)nn(C)c3=O)cc2)cc2cc(C(F)(F)F)cc(C(=O)Nc3ccc(F)c(C(N)=O)c3)c21 [Ex. 39] | 5.92 | 84 | 99 |  | 
CCn1c(-c2ccc(-n3c(C)nn(C)c3=O)cc2)cc2cc(C(F)(F)F)cc(C(=O)Nc3cccc(C(=O)NC)c3)c21 [Ex. 40] | 6.54 | 92 | 100 |  | 
COCCn1c(-c2ccc(-n3cnn(C)c3=O)cc2)cc2cc(C(F)(F)F)cc(C(=O)Nc3ccc(F)c(C(N)=O)c3)c21 [Ex. 41] | 6.55 | 92 | 100 |  | 
COCCn1c(-c2ccc(-n3cnn(C)c3=O)cc2)cc2cc(C(F)(F)F)cc(C(=O)Nc3cccc(C(N)=O)c3F)c21 [Ex. 42] | 6.59 | 90 | 100 |  | 
CNC(=O)c1cccc(NC(=O)c2cc(C(F)(F)F)cc3cc(-c4ccc(-n5cnn(C)c5=O)cc4)n(CCOC)c23)c1 [Ex. 43] | 6.60 | 93 | 100 |  | 
CNC(=O)c1cccc(NC(=O)c2cc(C(F)(F)F)cc3cc(-c4ccc(-n5c(C)nn(C)c5=O)cc4)n(CCOC)c23)c1 [Ex. 44] | 6.77 | 93 | 100 |  | 

Structure (SMILES) | pIC50 (human STAT6/pIL-4Rα) | inhibition at 0.1 µM (human STAT6; compound 0.1 μmol/L) [%] | inhibition at 1 µM (human STAT6; compound 1 μmol/L) [%] | Inhibition rate (%) (human STAT6; compound 0.1 μmol/L) | Inhibition rate (%) (human STAT6; compound 1 μmol/L)
CCn1c(-c2ccc(-n3cnn(C)c3=O)cc2)cc2cc(C(F)(F)F)cc(C(=O)Nc3ccc(F)c(C(N)=O)c3)c21 [Ex. 45] | 6.60 |  |  | 63 | 100
Cn1ncn(-c2ccc(-c3cc4cc(C(F)(F)F)cc(C(=O)Nc5ccc(F)c(C(N)=O)c5)c4[nH]3)cc2)c1=O [Ex. 46] | 6.35 | 81 | 100 |  | 
CCn1c(-c2ccc(-n3ncn(C)c3=O)cc2)cc2cc(C(F)(F)F)cc(C(=O)Nc3cccc(C(N)=O)c3F)c21 [Ex. 47] | 6.00 | 43 | 95 |  | 
CCn1c(-c2ccc(-n3ncn(C)c3=O)cc2)cc2cc(C(F)(F)F)cc(C(=O)Nc3cccc(C(N)=O)c3)c21 [Ex. 48] | 6.47 | 84 | 100 |  | 
CCn1c(-c2ccc(-n3c(C)nn(C)c3=O)cc2)cc2c(C(F)(F)F)ccc(C(=O)Nc3cccc(C(N)=O)c3F)c21 [Ex. 49] | 6.51 | 97 | 100 |  | 
CCn1c(-c2ccc(-n3c(C)nn(C)c3=O)cc2)cc2cc(C#N)cc(C(=O)Nc3ccc(F)c(C(N)=O)c3)c21 [Ex. 50] | 6.25 | 42 | 99 |  | 
CNC(=O)c1cc(NC(=O)c2cc(C(F)(F)F)cc3cc(-c4ccc(-n5c(C)nn(C)c5=O)cc4)n(CCOC)c23)ccc1F [Ex. 51] | 6.31 | 13 | 82 |  | 
COCCn1c(-c2ccc(-n3c(C)nn(C)c3=O)cc2)cc2cc(C(F)(F)F)cc(C(=O)Nc3cccc(C#N)c3)c21 [Ex. 52] | 6.72 | 52 | 100 |  | 
CCn1c(-c2ccc(-n3c(C)nn(C)c3=O)cc2)cc2cc(Cl)cc(C(=O)Nc3ccc(F)c(C(N)=O)c3)c21 [Ex. 56] | 6.57 | 94 | 100 |  | 
CCn1c(-c2ccc(-n3c(C)nn(C)c3=O)cc2)cc2nccc(C(=O)Nc3ccc(F)c(C(N)=O)c3)c21 [Ex. 57] | 6.31 | 89 | 100 |  | 
CCn1c(-c2ccc(-n3c(C)nn(C)c3=O)cc2)cc2nccc(C(=O)Nc3cccc(C(N)=O)c3F)c21 [Ex. 59] | 6.41 | 83 | 99 |  | 
CCn1c(-c2ccc(-n3c(C)nn(C)c3=O)cn2)cc2cc(C(F)(F)F)cc(C(=O)Nc3ccc(F)c(C(N)=O)c3)c21 [Ex. 61] | 6.33 | 93 | 100 |  | 
COCCn1c(-c2ccc(-n3c(C)nn(C)c3=O)cc2)cc2cc(C(F)(F)F)cc(C(=O)Nc3ccc4c(c3)C(=O)NCC4)c21 [Ex. 62] | 6.35 | 59 | 99 |  | 
CCn1c(-c2ccc(-n3cnn(C)c3=O)cn2)cc2cc(C(F)(F)F)cc(C(=O)Nc3cccc(C(N)=O)c3F)c21 [Ex. 65] | 6.36 | 50 | 98 |  | 
CCn1c(-c2ccc(N3CCOCC3=O)cc2)cc2cc(C(F)(F)F)cc(C(=O)Nc3cccc(C(N)=O)c3F)c21 [Ex. 66] | 6.49 | 58 | 99 |  | 
Cc1nn(C)c(=O)n1-c1ccc(-c2cc3cc(C(F)(F)F)cc(C(=O)Nc4ccc(F)c(C(N)=O)c4)c3n2CC2CC2)cc1 [Ex. 67] | 6.24 | 56 | 96 |  | 
CCn1c(-c2ccc(-n3c(C)nn(C)c3=O)cc2)cc2c(Cl)ccc(C(=O)Nc3ccc(F)c(C(N)=O)c3)c21 [Ex. 68] | 6.46 | 59 | 100 |  | 
